Experiments:
cells = assay type: functional, cell-based; details: Homo sapiens, HBE, 72 h
Description: Antiproliferative activity against human HBE cells assessed as cell growth inhibition incubated for 72 hrs by MTT assay

A-431 [1] = test: cells; assay type: functional, cell-based; details: Homo sapiens, A-431, 72 h
Description: Antiproliferative activity against human A-431 cells assessed as cell growth inhibition incubated for 72 hrs by MTT assay

A549 [2] = test: cells; assay type: functional, cell-based; details: Homo sapiens, A549, 72 h
Description: Antiproliferative activity against human A549 cells assessed as cell growth inhibition incubated for 72 hrs by MTT assay

[3] = target: Epidermal growth factor receptor (Homo sapiens, UniProt P00533, L858R/T790M)
NCI-H1975 [4] = test: Antiproliferative activity against human NCI-H1975 cells assessed as cell growth inhibition incubated for 72 hrs by MTT assay; assay type: functional, cell-based; details: NCI-H1975, 72 h
HCC827 = test: cells; assay type: functional, cell-based; details: Homo sapiens, HCC827, 72 h
Description: Antiproliferative activity against human HCC827 cells assessed as cell growth inhibition incubated for 72 hrs by MTT assay

A549 [5] = test: Induction of apoptosis in human A549 cells assessed as late apoptotic cells measured after 48 hrs by Annexin V-FITC/ Propidium iodide staining based flow cytometry relative to control; assay type: functional
MDA-MB-231 [6] = test: Antiproliferative activity against human MDA-MB-231 cells assessed as cell growth inhibition incubated for 48 hrs by MTT assay; assay type: functional, cell-based; details: MDA-MB-231, 48 h
A549 [7] = test: cells; assay type: functional, cell-based; details: Homo sapiens, A549, 48 h
Description: Antiproliferative activity against human A549 cells assessed as cell growth inhibition incubated for 48 hrs by MTT assay

A-431 [8] = test: cells; assay type: functional, cell-based; details: Homo sapiens, A-431, 48 h
Description: Antiproliferative activity against human A-431 cells assessed as cell growth inhibition incubated for 48 hrs by MTT assay

[9] = target: T1, Epidermal growth factor receptor (Homo sapiens, UniProt P00533)
T1 sequence (P00533 whole entry): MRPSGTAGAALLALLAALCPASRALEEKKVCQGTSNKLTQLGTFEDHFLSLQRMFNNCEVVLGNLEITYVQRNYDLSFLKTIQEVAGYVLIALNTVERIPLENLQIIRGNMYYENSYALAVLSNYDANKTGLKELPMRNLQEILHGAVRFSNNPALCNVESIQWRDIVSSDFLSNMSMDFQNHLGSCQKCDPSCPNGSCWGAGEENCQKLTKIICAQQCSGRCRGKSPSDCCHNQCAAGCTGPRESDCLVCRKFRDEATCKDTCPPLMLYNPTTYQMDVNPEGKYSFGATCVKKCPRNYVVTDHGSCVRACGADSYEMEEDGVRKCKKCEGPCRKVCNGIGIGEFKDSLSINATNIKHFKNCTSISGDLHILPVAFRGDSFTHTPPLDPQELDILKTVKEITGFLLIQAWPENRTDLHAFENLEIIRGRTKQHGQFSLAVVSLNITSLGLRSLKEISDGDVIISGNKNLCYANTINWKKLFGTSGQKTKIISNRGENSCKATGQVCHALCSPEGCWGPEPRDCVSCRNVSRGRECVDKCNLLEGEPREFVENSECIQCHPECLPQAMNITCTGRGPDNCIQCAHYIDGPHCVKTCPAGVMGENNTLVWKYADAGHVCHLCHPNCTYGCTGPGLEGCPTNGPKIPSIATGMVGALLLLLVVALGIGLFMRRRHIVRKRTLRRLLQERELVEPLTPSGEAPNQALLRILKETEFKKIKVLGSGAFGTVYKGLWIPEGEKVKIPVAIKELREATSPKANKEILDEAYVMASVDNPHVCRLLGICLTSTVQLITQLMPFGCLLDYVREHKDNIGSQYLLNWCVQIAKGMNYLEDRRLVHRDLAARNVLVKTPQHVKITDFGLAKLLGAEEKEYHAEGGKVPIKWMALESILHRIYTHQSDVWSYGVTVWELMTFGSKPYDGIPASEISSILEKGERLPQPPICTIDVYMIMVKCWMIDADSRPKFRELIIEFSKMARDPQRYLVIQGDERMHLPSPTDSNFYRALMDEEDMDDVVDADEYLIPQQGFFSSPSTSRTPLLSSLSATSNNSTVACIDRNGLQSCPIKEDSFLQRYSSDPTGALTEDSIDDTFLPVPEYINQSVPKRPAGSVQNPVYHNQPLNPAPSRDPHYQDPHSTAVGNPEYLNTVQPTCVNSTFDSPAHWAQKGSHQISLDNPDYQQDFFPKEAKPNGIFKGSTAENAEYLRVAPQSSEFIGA

MCF7 = test: Antiproliferative activity against human MCF7 cells assessed as cell growth inhibition incubated for 72 hrs by MTT assay; assay type: functional, cell-based; details: MCF7, 72 h
[10] = target: T1, Epidermal growth factor receptor; test: Inhibition of EGFR (unknown origin) incubated for 10 mins in presence of ATP by mobility shift assay
PC-3 = test: Antiproliferative activity against human PC-3 cells assessed as cell growth inhibition incubated for 72 hrs by MTT assay; assay type: functional, cell-based; details: PC-3, 72 h
[11] = target: Epidermal growth factor receptor (Homo sapiens, UniProt P00533, T790M/L858R); test: Inhibition of EGFR L858R/T790M mutant (unknown origin) incubated for 10 mins in presence of ATP by mobility shift assay
Chain of Epidermal growth factor receptor (Homo sapiens, UniProt P00533, T790M/L858R) (P00533 25-1210 T790M/L858R limits assumed): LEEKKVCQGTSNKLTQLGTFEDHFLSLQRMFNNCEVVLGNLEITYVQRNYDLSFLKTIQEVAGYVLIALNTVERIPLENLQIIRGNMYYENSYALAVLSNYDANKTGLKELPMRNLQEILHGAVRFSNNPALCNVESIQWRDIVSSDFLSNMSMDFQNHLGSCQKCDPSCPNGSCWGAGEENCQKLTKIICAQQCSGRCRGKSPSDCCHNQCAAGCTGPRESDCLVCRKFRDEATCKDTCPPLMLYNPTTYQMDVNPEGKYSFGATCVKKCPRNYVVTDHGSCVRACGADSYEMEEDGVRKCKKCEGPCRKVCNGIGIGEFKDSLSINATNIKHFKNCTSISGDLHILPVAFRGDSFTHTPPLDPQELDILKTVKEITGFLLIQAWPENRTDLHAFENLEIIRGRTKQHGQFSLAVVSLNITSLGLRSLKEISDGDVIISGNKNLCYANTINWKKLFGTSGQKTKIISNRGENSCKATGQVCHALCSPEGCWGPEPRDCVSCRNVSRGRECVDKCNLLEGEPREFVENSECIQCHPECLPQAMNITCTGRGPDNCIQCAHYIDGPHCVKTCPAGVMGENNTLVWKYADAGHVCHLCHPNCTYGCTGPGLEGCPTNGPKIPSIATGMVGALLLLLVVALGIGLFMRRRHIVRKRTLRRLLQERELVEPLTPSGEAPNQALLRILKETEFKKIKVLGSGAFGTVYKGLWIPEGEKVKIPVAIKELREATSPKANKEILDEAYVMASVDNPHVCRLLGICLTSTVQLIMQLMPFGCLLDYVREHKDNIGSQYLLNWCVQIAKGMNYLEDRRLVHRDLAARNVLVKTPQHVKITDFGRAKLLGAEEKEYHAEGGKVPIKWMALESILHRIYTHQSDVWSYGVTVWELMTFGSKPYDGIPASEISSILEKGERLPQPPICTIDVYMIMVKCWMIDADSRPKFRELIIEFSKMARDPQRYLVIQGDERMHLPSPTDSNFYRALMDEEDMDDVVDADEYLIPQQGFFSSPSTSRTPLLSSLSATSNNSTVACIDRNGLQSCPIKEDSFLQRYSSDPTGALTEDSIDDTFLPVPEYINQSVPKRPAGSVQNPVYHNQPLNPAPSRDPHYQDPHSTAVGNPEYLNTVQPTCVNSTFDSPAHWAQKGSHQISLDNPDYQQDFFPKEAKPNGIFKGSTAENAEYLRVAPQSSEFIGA

HepG2 = test: Antiproliferative activity against human HepG2 cells assessed as cell growth inhibition incubated for 72 hrs by MTT assay; assay type: functional, cell-based; details: HepG2, 72 h
A549 [12] = test: Induction of apoptosis in human A549 cells measured after 48 hrs by Annexin V-FITC/ Propidium iodide staining based flow cytometry relative to control; assay type: functional
Caspase-3 (Homo sapiens) = Caspase-3 (Homo sapiens) (UniProt P42574); test: Activation of caspase 3 (unknown origin); details: filed as activator
Chain of Caspase-3 (Homo sapiens) (P42574 29-175 limits assumed): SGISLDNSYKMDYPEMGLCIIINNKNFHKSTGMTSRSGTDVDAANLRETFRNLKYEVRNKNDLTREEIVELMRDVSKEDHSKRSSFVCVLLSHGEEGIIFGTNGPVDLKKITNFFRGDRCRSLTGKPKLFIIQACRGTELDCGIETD
Chain of Caspase-3 (Homo sapiens) (P42574 176-277 limits assumed): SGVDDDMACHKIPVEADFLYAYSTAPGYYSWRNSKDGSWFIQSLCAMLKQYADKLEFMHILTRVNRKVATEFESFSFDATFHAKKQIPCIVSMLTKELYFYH

A-431 [13] = test: Antiproliferative activity against human A-431 cells assessed as cell growth inhibition incubated for 24 hrs by MTT assay; assay type: functional
NCI-H1975 [14] = test: Antiproliferative activity against human NCI-H1975 cells assessed as cell growth inhibition by MTT assay; assay type: functional, cell-based
A549 [15] = test: cells; details: Homo sapiens
Description: Antiproliferative activity against human A549 cells assessed as cell growth inhibition by MTT assay

A-431 [16] = test: Antiproliferative activity against human A-431 cells assessed as cell growth inhibition by MTT assay; assay type: functional, cell-based
SW480 = test: Antiproliferative activity against human SW480 cells assessed as cell growth inhibition by MTT assay; assay type: functional, cell-based
A549 [17] = test: Antiproliferative activity against human A549 cells assessed as cell growth inhibition incubated for 24 hrs by MTT assay; assay type: functional, cell-based; details: A549, 24 h
A-431 [18] = test: Antiproliferative activity against human A-431 cells assessed as cell growth inhibition incubated for 72 hrs by SRB assay; assay type: functional, cell-based; details: A-431, 72 h
[19] = target: Epidermal growth factor receptor (Homo sapiens, UniProt P00533, 746-750DEL)
[20] = AUC (0 to infinity) in Sprague-Dawley rat plasma at 10 mg/kg, iv by LC-MS/MS analysis; assay type: ADME, organism-based; design: dose 10 mg/kg, route iv
PC-9 = test: cells; assay type: functional, cell-based; details: Homo sapiens, PC-9, 72 h
Description: Antiproliferative activity against human PC-9 cells assessed as cell growth inhibition incubated for 72 hrs by SRB assay

[21] = AUClast in Sprague-Dawley rat plasma at 10 mg/kg, iv by LC-MS/MS analysis; assay type: ADME, organism-based; design: dose 10 mg/kg, route iv
[22] = MRT (0 to 24 hrs) in Sprague-Dawley rat plasma at 10 mg/kg, iv by LC-MS/MS analysis; assay type: ADME, organism-based
MDA-MB-231 [23] = test: Antiproliferative activity against human MDA-MB-231 cells assessed as cell growth inhibition incubated for 24 hrs by MTT assay; assay type: functional, cell-based; details: MDA-MB-231, 24 h
A549 [24] = test: Anticancer activity against human A549 cells assessed as cell growth inhibition incubated for 24 hrs by MTT assay; assay type: functional, cell-based; details: A549, 24 h
[25] = target: T1, Epidermal growth factor receptor; test: Inhibition of human EGFR incubated for 1 hrs in presence of ATP by ELISA assay
[26] = target: Receptor tyrosine-protein kinase erbB-2 (Homo sapiens, UniProt P04626)
Chain of Receptor tyrosine-protein kinase erbB-2 (P04626 whole entry): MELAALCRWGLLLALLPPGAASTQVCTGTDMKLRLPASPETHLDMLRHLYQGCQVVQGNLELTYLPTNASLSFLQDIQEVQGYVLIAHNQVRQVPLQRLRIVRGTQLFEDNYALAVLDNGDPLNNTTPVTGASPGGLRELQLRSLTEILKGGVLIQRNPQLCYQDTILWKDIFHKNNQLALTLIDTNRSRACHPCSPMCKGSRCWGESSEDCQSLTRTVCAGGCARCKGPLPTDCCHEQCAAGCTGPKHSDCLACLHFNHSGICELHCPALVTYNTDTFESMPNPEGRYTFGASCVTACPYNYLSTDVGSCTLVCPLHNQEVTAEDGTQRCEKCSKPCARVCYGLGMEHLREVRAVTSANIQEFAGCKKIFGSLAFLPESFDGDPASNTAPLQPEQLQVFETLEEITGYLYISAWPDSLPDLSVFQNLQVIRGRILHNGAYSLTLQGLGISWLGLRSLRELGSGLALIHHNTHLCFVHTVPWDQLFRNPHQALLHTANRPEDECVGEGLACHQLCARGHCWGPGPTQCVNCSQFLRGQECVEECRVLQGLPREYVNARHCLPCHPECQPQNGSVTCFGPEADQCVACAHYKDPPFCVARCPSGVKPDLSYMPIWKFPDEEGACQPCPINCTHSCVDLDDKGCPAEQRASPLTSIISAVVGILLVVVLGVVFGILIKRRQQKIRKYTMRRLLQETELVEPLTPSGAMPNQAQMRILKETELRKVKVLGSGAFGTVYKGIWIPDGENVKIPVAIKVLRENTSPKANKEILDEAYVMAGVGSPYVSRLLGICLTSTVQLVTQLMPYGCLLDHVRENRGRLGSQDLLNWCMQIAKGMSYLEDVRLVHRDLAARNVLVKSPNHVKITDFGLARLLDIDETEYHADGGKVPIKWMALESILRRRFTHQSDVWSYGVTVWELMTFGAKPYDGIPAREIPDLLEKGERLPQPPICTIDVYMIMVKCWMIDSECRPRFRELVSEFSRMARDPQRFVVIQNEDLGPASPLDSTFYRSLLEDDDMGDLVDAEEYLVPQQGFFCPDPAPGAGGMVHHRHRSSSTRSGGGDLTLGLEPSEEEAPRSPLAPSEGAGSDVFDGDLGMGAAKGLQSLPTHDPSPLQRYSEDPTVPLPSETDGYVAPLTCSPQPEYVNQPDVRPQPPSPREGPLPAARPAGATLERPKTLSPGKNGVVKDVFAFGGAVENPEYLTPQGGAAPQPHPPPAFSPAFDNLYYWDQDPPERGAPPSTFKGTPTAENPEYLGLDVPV

[27] = Half life in Sprague-Dawley rat plasma at 10 mg/kg, iv by LC-MS/MS analysis; assay type: ADME, organism-based; details: in vivo
[28] = Volume of distribution at steady state in Sprague-Dawley rat at 10 mg/kg, iv by LC-MS/MS analysis; assay type: ADME, organism-based; details: in vivo
[29] = Half life in human liver microsomes by LC-MS/MS analysis; assay type: ADME

Chain of Epidermal growth factor receptor (Homo sapiens, UniProt P00533, L858R/T790M) (P00533 25-1210 T790M/L858R limits assumed): as the sequence (P00533 25-1210 T790M/L858R limits assumed) above

C=CC(=O)Nc1ccccc1Nc1ncnc2cc(OC)c(OCCN3CCOCC3)cc12
IC50 (cells): 34000 nM
IC50 (A-431 [1]): 13400 nM
IC50 (A549 [2]): 32400 nM
IC50 [3]: 4.3 nM
IC50 (NCI-H1975 [4]): 8700 nM
IC50 (HCC827): 650 nM

CN(C)C/C=C/C(=O)Nc1cc2c(N3CCc4ccccc43)ncnc2cc1O[C@@H]1CCOC1
Activity (A549 [5]): 14.59%

CCCN(c1ccc(F)c(Cl)c1)c1ncnc2cc(OC)c(OCCCN3CCOCC3)cc12
IC50 (MDA-MB-231 [6]): 10200 nM
IC50 (A549 [7]): 10900 nM
IC50 (A-431 [8]): 1680 nM
IC50 [9]: 21.4 nM

CN(C)CCn1cccc1/C=N/NC(=O)Nc1cc2c(Nc3ccc(F)c(Cl)c3)ncnc2cc1O[C@H]1CCOC1
IC50 (MCF7): 4820 nM
IC50 (A549 [2]): 1840 nM
IC50 [10]: 0.05 nM
IC50 (PC-3): 3840 nM
IC50 [11]: 5.6 nM
IC50 (HepG2): 40 nM

C#Cc1cccc(Nc2ncnc3cc(OCCOC)c(OCCOC)cc23)c1 [ERLOTINIB]
Activity (A549 [12]): 53.9%
Activity (Caspase-3 (Homo sapiens)): 480 pg/mL
IC5 (A-431 [13]): 3 µM

CCN(CC)CCNCc1ccc(-c2ccc3ncnc(Nc4ccc(OCc5cccc(F)c5)c(Cl)c4)c3c2)o1
IC50 (NCI-H1975 [14]): 9790 nM
IC50 (A549 [15]): 5460 nM
IC50 (A-431 [16]): 2210 nM
IC50 (SW480): 6670 nM

COc1cc2ncnc(NCc3ccc(Cl)s3)c2cc1OC
IC50 (A549 [17]): > 50000 nM
IC5 (A-431 [13]): 3.4 µM

C#Cc1cccc(Nc2ncnc3cc(OC)c(OCCCN4CCOCC4)cc23)c1
IC50 (A-431 [18]): < 100 nM
IC50 [19]: 1.23 nM
AUC(0-inf) [20]: 6150 ng·h/mL
IC50 (PC-9): 100 nM
AUC(0-t) [21]: 6110 ng·h/mL
MRT last [22]: 3.96 h

Cc1ccc(NC(=O)CSc2nc3cc4ccccc4cc3c(=O)n2-c2ccc(S(N)(=O)=O)cc2)cc1C
IC50 (MDA-MB-231 [23]): 310 nM
Activity (Caspase-3 (Homo sapiens)): 546 pg/mL

Cc1ccc(NC(=O)CSc2nc3cc4ccccc4cc3c(=O)n2-c2ccc(S(N)(=O)=O)cc2)cc1
IC50 (A549 [24]): 105 nM
IC50 [25]: 9 nM
IC50 [26]: 21 nM

Cc1ccccc1NC(=O)CSc1nc2cc3ccccc3cc2c(=O)n1-c1ccc(S(N)(=O)=O)cc1
IC50 (A549 [24]): 181 nM
IC50 [25]: 12 nM
IC50 [26]: 21 nM

COc1cc2ncnc(Nc3ccc(F)c(Cl)c3)c2cc1OCCCN1CCOCC1 [GEFITINIB]
t1/2 [27]: 3.85 h
AUC(0-inf) [20]: 7800 ng·h/mL
Vdss [28]: 5.93 L/kg
t1/2 [29]: 0.3752 h
AUC(0-t) [21]: 7720 ng·h/mL
MRT last [22]: 4.54 h

— ChEMBL document CHEMBL5230100, “Novel quinazoline-based EGFR kinase inhibitors: A review focussing on SAR and molecular docking studies (2015-2019)” (Eur J Med Chem, 2020)
